Data as given in patent US20050137209A1, “Treatment of neurologic disorders with inhibitors of 11beta-HSD1” (AGY Therapeutics, Inc., priority 2003, published 2005).

Assays:
[1] = system: middle cerebral artery occlusion (MCAO) brain infarction; assay: MCAO transient focal ischemia, carbenoxolone (Example 2); format: in vivo, rat
Text: The method used is a middle cerebral artery (MCA) occlusion to induce temporary cerebral ischemia. It involves anesthetizing the rat, making an incision in the ventral neck region to isolate the common carotid artery and the internal and external carotid arteries. […] A silicone-coated mono filament is then inserted into the external carotid artery and woven through the artery into the internal carotid until it can occlude blood flow to the middle cerebral artery (MCA). The filament can then be tied in place (permanent occlusion) or removed after a short amount of time depending on the desired degree of ischemic damage (3 minutes to 2 hours). After removal of the filament, the external carotid stump is tied shut and the clamps removed to allow the return of blood flow to the brain. The incision was closed with wound clips. Post surgery, animals were observed until recovery from anesthesia. During the surgery, animals were kept on a thermostat-regulated heating pad to maintain the body and head temperatures at 37° C. To inhibit the blood from clotting 90 IU.kg^−1 Heparin was administered intravenously to the animal after occlusion of MCAO. The body core temperature of the animal was measured regularly, up to 1 day of recovery in some animals. […] Temperatures are measured manually using a rat probe. […] Infarction volume was measured by digital imaging and image analysis software. […]

[2] = system: middle cerebral artery occlusion (MCAO) brain infarction; assay: MCAO transient focal ischemia, BVT 2733 (Example 1); format: in vivo; settings: rat, 90 min MCAO, bolus 90 mg/kg at 4.5 h and 8.5 h post-occlusion, 24 h reperfusion
Experimental: BVT 2733 was tested in the following MCAO protocol. A middle cerebral artery (MCA) occlusion was used to induce temporary cerebral ischemia. It involves anesthetizing the rat, making an incision in the ventral neck region to isolate the common carotid artery and the internal and external carotid arteries. […] A silicone-coated mono filament is then inserted into the external carotid artery and woven through the artery into the internal carotid until it can occlude blood flow to the middle cerebral artery (MCA). The filament is removed after 90 min. After removal of the filament, the external carotid stump is tied shut and the clamps removed to allow the return of blood flow to the brain. The incision will be closed with wound clips. Post surgery, animals are observed until recovery from anesthesia.
During the surgery, animals are kept on a thermostat-regulated heating pad to maintain the body and head temperatures at 37° C. […]
The body core temperature of the animal is measured regularly, up to 1 day of recovery in some animals. […] Temperatures are measured manually using a rectal probe. […]
After 24 hours of reperfusion, the animals are sacrificed. […] Infarction volume was measured by digital imaging and image analysis software. Infarction volumes are determined in cortex and striatum and expressed as a percentage of the total brain volume. […]

[3] = target: T1, human 11βHSD2 (Homo sapiens, UniProt P80365); settings: cited from earlier work
T1 sequence (P80365 1-405): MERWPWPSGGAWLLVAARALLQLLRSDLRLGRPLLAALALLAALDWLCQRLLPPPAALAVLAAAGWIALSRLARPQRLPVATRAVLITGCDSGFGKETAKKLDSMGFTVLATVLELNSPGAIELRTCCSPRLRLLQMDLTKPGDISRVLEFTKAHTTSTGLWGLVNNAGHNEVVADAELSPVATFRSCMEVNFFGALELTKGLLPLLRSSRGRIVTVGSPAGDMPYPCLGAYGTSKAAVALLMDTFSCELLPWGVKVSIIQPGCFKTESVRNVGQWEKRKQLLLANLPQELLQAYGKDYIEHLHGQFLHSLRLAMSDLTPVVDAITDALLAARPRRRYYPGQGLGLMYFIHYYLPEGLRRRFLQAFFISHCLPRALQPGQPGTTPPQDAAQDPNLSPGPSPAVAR

Structure (SMILES) | neuroprotection ([1]; rat MCAO, carbenoxolone administered at 4 to 6 hours post-occlusion) | infarction volume in cortex and striatum as percentage of total brain volume, versus vehicle ([1]; rat, 90 min MCAO, bolus 20 mg at 5 min of reperfusion plus infusion 1.6 mg/h for 24 hours, TTC staining) | neuroprotection (FIG. 1) [2] | infarction volume in cortex and striatum as percentage of total brain volume, versus vehicle ([2]; TTC staining) | IC50 [3] [µM]
CC1(C)[C@@H](OC(=O)CCC(=O)O)CC[C@]2(C)[C@H]3C(=O)C=C4[C@@H]5C[C@@](C)(C(=O)O)CC[C@]5(C)CC[C@@]4(C)[C@]3(C)CC[C@@H]12 [carbenoxolone] | potent neuroprotection | smaller infarction compared to vehicle treated rats |  |  | 
Cc1c(Cl)cccc1S(=O)(=O)Nc1nc(CC(=O)N2CCN(C)CC2)cs1 [BVT 2733, 3-Chloro-2-methyl-N-{4-[2-(4-methyl-piperazin-1-yl)-2-oxo-ethyl]-thiazol-2-yl}-benzenesulfonamide] |  |  | potent and significant neuroprotection | smaller infarction compared to vehicle treated rats | > 10
